Data reported in patent publication US7235590B2, “Use of treosulfan and derivatives thereof for treating multiple sclerosis” (Medac Gesellschaft fur Klinische Spezialpraparate mbH, priority 2002, dated 2007).

Columns and labels:
[1] = system: myelin oligodendrocyte glycoprotein (MOG) induced experimental autoimmune encephalomyelitis (EAE); experiment: MOG-induced experimental autoimmune encephalomyelitis (EAE) in DA rats, clinical course; type: in vivo
Description: Using the example of experimental autoimmune encephalomyelitis (EAE) which is recognized as animal model of human MS, the effectiveness of treosulfan was first of all examined. […] In the first trials, treosulfan was applied on the day of immunisation, in another on day 14 following immunisation.
Firstly, several trials for the determination of the dosage of treosulfan were carried out in DA rats, a strain of rat particularly suitable for these trials (Dark Agouti strain) with myelin oligodendrocyte glycoprotein (MOG) induced experimental autoimmune encephalomyelitis (EAE). These rats represent an excellent model of multiple sclerosis (MS) since the clinical development and the lesion morphology (inflammation, demyelination, loss of axons and nerve cells) of MS can be reproduced.
DA rats (10 animals per group) were treated either with a single dose of treosulfan (0.5 g/kg bodyweight) on the day of immunisation (p.i.) or with a three times repeated treosulfan application (0.5 g/kg bodyweight per application) at intervals of 1 day. PBS (phosphate buffered salt solution) was administered as control. In a further experiment, treosulfan (single dose: 0.5 g/kg bodyweight) was administered 2 weeks after immunisation. The total number of rats was 30 animals. The animals were observed clinically for the period of 40 days after initiation of the experiment and regularly examined neurologically.
FIGS. 3 and/or 3a are different representations of the experiment in which treosulfan was administered on day 14 following immunisation.

[2] = Tolerance and haematological characterisation in MOG-EAE rats; type: in vivo, DA rats
Source text: To analyse the haematological status, blood was taken from the rats on day 0, day 5, day 14, and day 53 following immunisation and a determination of haemoglobin (Hb), reticulocytes, leukocytes, thrombocytes and crythrocytes carried out.
The tolerance of treosulfan is illustration in FIGS. 5–15.

interleukin 12 (IL-12) = experiment: Quantitative PCR for IL-12 in MOG-EAE rats; type: in vivo, DA rats; details: treatment on day 0
Source text: (§1) In a second experiment, five rats each were characterised immunologically on day 12 and day 40 (total number of animals: n=30) following the immunisation with respect to T and B cell response (EliSpot (Autoimmun Diagnostika GmbH, D-72479 Strassberg) for IFN-secreting cells, proliferations, auto-antibody analysis). (R. Weissert et al., J. Immunol. 160 […], 681–690).
(§2) It was, moreover, observed that the interleukin 12 (IL-12) and/or interferon-β (IFN-β) values were reduced in the treosulfan group (FIG. 16, 17). (R. Weissert et al., J. Immunol. 166 (2001), 7588–7599).
FIG. 17: Quantitative PCR for IL-12 treatment with treosulfan on day 0.

interferon-β (IFN-β) = experiment: Quantitative PCR for IFN in MOG-EAE rats; type: in vivo, DA rats; details: treatment on day 0
Source text: as §1, §2
FIG. 16: Quantitative PCR for IFN-treatment with treosulfan on day 0.

secondary progressive MS = experiment: Healing trial on patients with secondary progressive MS; type: in vivo
Description: In the course of a first healing trial, 5 patients suffering from secondary progressive MS (SPMS patients) were treated. They consisted of 3 men […]/62 and two women […].
As part of the therapy, treosulfan was administered in the form of a solution suitable for intravenous application (infusion). The patients were treated with a dosage of 5 g/m^2 body surface in each case at intervals of 4 weeks in the first quarter. Subsequently, a single treosulfan application (5 g/m^2 of treosulfan) took place per quarter.
In the case of two patients, an improvement of the ambulation index (S. L. Hauser et al. N. Engl. J. Med. 308 (1983) 173–178) was observed.

Compound | effectiveness compared with the treosulfan group ([1]; same trial conditions, single i.p. treatment on the day of immunisation) | effectiveness in comparison with the untreated control group ([1]; FIGS. 1-3a) | animals still alive ([1]; day 53, untreated control group 2 out of 8) | suppression of the disease ([1]; single dose of 1 g/kg bodyweight, intraperitoneal) | disease course in contrast to untreated control group ([1]; treosulfan applied on day 14 following immunisation) | changes to the blood picture (Hb, reticulocytes, leukocytes, thrombocytes, erythrocytes) ([2]; blood taken day 0, 5, 14 and 53 following immunisation) | weight ([2]; single dose of 1 g/kg i.p., at the beginning of the treatment) | interleukin 12 (IL-12) values (interleukin 12 (IL-12)) | interferon-β (IFN-β) values (interferon-β (IFN-β)) | patients with improvement of the ambulation index (secondary progressive MS; 5 SPMS patients, 5 g/m^2 body surface i.v. infusion every 4 weeks in the first quarter, then once per quarter) | substance-related secondary effects (secondary progressive MS; 5 SPMS patients, 5 g/m^2 i.v. infusion) | disease development in MS patients (secondary progressive MS; summary statement) | tolerance (secondary progressive MS; summary statement)
O=C1c2c(O)ccc(O)c2C(=O)c2c(NCCNCCO)ccc(NCCNCCO)c21 [mitoxantrone] | no greater effectiveness |  |  |  |  |  |  |  |  |  |  |  | 
CS(=O)(=O)OC[C@H](O)[C@@H](O)COS(C)(=O)=O [treosulfan, (2S,3S)-threitol-1,4-bismethane sulphonate] |  | confirm first of all the effectiveness | 7 out of 8 | capable of suppressing the disease | stabilisation | not documented | substantial decrease in weight | reduced | reduced | two | No substance-related secondary effects were observed | clear improvement | extremely well tolerated
